How the values were obtained:
OATP1B1 = molecular target: T1, OATP1B1 (Homo sapiens, UniProt Q9Y6L6); test: Inhibition by CLF of estrone-3-sulfate transport in CHO cells expressing OATP1B1; assay type: cell-based; conditions: 0, 5 or 50 μmol/L CLF, 1 μmol/L estrone-3-sulfate
T1 construct: expressed in transfected cells; host or cells: CHO cells (stably transfected; Treiber et al. 2007)
T1 sequence (Q9Y6L6 1-691): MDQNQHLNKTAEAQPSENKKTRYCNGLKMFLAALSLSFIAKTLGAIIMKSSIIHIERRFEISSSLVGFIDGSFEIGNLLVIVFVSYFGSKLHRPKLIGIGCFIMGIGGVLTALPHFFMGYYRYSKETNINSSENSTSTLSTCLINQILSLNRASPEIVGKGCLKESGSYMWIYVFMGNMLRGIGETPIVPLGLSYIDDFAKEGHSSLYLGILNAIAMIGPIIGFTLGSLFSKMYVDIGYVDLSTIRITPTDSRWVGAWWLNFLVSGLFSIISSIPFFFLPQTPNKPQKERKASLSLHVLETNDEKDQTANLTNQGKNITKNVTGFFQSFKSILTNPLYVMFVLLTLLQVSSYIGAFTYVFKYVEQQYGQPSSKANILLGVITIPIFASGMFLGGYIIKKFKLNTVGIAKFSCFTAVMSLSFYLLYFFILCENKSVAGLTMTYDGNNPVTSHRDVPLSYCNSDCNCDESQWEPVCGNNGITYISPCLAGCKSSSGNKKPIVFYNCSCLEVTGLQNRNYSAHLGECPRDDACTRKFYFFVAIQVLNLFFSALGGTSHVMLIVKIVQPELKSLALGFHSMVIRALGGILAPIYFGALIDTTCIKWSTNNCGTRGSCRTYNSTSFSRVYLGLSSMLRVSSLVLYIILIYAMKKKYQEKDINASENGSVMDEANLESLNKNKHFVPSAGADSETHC
Method: FIGS. 3A-3D relate to inhibition of transport activity of hepatocellular uptake transporters by CLF. CHO cells expressing NTCP, OATP1B1, OATP1B3 and OATP2B1 were incubated with 0, 5 or 50 μmol/L CLF and with the substrates, 2.5 μmol/L TC, 1 μmol/L estrone-3-sulfate, 10 μmol/L TC and 1 μmol/L estrone-3-sulfate, respectively. Data represent means±SD of triplicate determinations.
For all transport experiments, cells grown on 3 cm culture dishes were cultured for 24 hours in media supplemented with 5 mmol/L sodium-butyrate to increase expression levels of transfected transporters [Palermo D P et al., J Biotechnol 1991 June; 19(1):35-47]. • Transport experiments with uptake of radioactively labeled substrates: These experiments were performed as described by Huber R D et al. [Am J Physiol Cell Physiol 2007 February; 292(2):C795-C806]. • Transport experiments with uptake of CLF: Uptake was performed in the same buffers as for the radioactive substrates above. […] After complete solubilization, 1.5 ml was used to measure fluorescence in a Perkin-Elmer LS-5 luminescence-spectrometer set at λexe 486 nm (slit 10 nm) and λem 520 nm (slit 5 nm). Protein was determined with the bicinchoninic acid method using a kit from Interchim (Montfuçon, France). […]

ABCC2 = molecular target: T2, ABCC2 (Homo sapiens, UniProt Q92887); test: ATP-dependent transport of CLF into Sf21 membrane vesicles containing ABCC2; assay type: biochemical; parameters: Vmax of ABCC2 mediated transport of CLF: unit not given here
T2 construct: made in house; host or cells: Sf21 insect cells, baculovirus; plasma membrane vesicles
T2 sequence (Q92887 whole entry): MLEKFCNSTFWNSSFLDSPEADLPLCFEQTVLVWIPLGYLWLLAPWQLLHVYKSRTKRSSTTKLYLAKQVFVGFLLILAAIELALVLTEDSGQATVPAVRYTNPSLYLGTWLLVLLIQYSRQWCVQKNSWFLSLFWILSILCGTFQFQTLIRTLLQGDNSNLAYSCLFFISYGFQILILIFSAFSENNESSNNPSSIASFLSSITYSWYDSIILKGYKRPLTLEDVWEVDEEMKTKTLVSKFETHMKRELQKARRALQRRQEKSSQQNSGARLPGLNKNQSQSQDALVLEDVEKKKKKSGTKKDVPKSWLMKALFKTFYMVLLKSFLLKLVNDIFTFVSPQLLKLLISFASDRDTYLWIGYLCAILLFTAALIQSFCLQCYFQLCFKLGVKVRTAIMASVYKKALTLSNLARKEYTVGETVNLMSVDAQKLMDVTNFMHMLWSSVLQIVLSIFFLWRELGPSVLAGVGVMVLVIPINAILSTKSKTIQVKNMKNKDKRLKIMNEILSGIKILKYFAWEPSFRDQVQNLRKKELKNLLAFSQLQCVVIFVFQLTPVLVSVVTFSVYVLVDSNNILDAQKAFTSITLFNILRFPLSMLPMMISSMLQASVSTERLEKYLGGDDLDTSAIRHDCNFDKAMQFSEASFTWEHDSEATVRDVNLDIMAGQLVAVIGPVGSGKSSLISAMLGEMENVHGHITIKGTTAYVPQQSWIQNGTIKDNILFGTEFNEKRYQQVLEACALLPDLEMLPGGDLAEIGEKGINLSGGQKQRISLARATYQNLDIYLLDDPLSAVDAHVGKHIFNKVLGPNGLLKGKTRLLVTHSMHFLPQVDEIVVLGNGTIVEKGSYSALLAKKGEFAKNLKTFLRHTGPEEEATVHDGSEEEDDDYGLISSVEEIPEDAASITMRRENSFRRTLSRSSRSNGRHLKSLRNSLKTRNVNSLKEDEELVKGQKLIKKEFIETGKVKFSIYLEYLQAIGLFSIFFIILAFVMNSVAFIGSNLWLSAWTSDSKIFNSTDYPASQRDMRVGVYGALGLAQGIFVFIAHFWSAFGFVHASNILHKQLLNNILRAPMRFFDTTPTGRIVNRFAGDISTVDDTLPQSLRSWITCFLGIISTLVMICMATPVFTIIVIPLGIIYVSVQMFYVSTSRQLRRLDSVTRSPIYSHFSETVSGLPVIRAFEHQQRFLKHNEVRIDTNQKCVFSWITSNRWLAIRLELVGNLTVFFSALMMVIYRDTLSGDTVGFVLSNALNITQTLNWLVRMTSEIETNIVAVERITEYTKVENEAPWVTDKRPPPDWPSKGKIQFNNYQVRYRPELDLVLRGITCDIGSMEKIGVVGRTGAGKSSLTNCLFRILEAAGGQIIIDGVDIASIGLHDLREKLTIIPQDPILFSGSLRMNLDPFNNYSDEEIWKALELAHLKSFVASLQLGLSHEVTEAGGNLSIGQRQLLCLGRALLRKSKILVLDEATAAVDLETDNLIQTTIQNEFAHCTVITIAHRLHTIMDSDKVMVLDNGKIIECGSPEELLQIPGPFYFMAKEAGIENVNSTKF
Method: The production of recombinant baculovirus was as described by de Waart et al. [Liver Int 2006 April; 26(3):362-368]. ABCC3 and ABCG2-recombinant baculovirus were a kind gift from Borst [Breedveld P. et al., Cancer Res 2004 Aug. 15; 64(16):5804-5811 and Borst P. et al., J Biol Chem 2001 Dec. 7; 276(49):46400-46407.]. ABCB11-recombinant baculovirus was a kind gift from Thompson [Thompson R J et al., Gastroenterology 2002 November; 123(5):1649-1658]. Sf21 cells grown at 27° C. were infected with ABCB11, ABCC2, ABCC3 and ABCG2-cDNA containing baculovirus. Cells were harvested at 2-4 days after infection. Membrane vesicle preparation was as described by de Waart et al. [Liver Int 2006 April; 26(3):362-368].
Transport studies with membrane vesicles were performed using the rapid filtration technique as described by Heijn M et al. [Am J Physiol 1992 January; 262(1 Pt 1):C104-C110]. Radiolabel was measured with a scintillation counter. When CLF was used as a probe, filters were placed in a glass tube, 0.1% Triton-X-100 was added and the tubes vortexed. Samples were pipetted in 96-well plates (Kartell, Noviglio, Italy) and the amount CLF quantitated by measurement of fluorescence at λexe 485 nm and λcm 520 nm using a NovoStar (BMG-labtech, Offenburg, Germany). […]

## CC(CCC(=O)NC(CCCCNC(=S)Nc1ccc(-c2c3ccc(=O)cc-3oc3cc(O)ccc23)c(C(=O)O)c1)C(=O)O)C1CCC2C3C(O)CC4CC(O)CCC4(C)C3CC(O)C12C (stereo not drawn) [CLF, cholyl lysyl fluorescein]
OATP1B1
  inhibition of transport of estrone-3-sulfate mediated by OATP1B1 by CLF: much less efficiently
ABCC2; 10 μg total protein, presence or absence of 4 mmol/L ATP
  Vmax of ABCC2 mediated transport of CLF: 436±215
ABCC2; compared to control wild type Sf21 membrane vesicles
  CLF transport in ABCC2 containing membrane vesicles: much higher CLF transport rates

From patent US8318504B2, “MRP2 efflux pathway prognostic method” (priority 2009, dated 2012)
